A short description of test [1]: Inhibition of Escherichia coli MurD ligase assessed as residual activity at 500 uM after 15 mins by colorimetric malachite green assay.
Test [2] can be described thus: Inhibition of Escherichia coli MurD ligase assessed as residual activity at 250 uM after 15 mins by colorimetric malachite green assay.
Test [3] in a line: Inhibition of Escherichia coli MurD ligase after 15 mins by colorimetric malachite green assay.

Each structure is given as a SMILES string.

For orientation: IC50 means the point on the concentration scale where inhibition reaches its midpoint.

Turning to `O=C(O)CC[C@@H](NC(=O)c1cccc(CC2SC(=S)NC2=O)c1)C(=O)O` (stereo partly specified), the Activity in test [1] is 91%.
For `N=C1NC(=O)/C(=C/c2ccc(C(=O)N[C@H](CCC(=O)O)C(=O)O)cc2)S1`, the Activity in test [1] is 95%.
Same read-out and setting: with `O=C(O)CC[C@@H](NC(=O)c1ccc(CC2SC(=S)NC2=O)cc1)C(=O)O` (stereo partly specified) the figure was 96%.
Still for that read-out and setting: with `COC(=O)CC[C@@H](NC(=O)c1cccc(CC2SC(=S)NC2=O)c1)C(=O)OC` (stereo partly specified) the figure was 91%.
For `O=C(O)CC[C@H](NC(=O)c1ccc(/C=C2\SC(=O)NC2=O)cc1)C(=O)O`, in test [2], the Activity was determined as 93%.
Molecule `O=C(O)CC[C@@H](NC(=O)c1cccc(/C=C2\SC(=S)NC2=O)c1)C(=O)O` returned an IC50 in test [3] of 89 µM.
On to `O=C(O)CC[C@@H](NC(=O)c1ccc(/C=C2\SC(=O)NC2=O)cc1)C(=O)O`, for which, in test [2], the Activity turned out to be 96%.
Consider `CN1C(=O)/C(=C/c2ccc(C(=O)N[C@H](CCC(=O)O)C(=O)O)cc2)SC1=S`, for which, in test [1], the Activity stood at 85%.
Same read-out and setting: next, `O=C(O)CC[C@@H](NC(=O)c1cc(/C=C2\SC(=S)NC2=O)ccc1F)C(=O)O`: 67%.
`O=C(O)CC[C@@H](NC(=O)c1ccc(/C=C2\SC(=S)NC2=O)cc1)C(=O)O` displayed an IC50 in test [3] of 45 µM.
Turning to `O=C(O)CC[C@H](NC(=O)c1cccc(/C=C2\SC(=O)NC2=O)c1)C(=O)O`, in test [2], the Activity is 96%.
`O=C(O)CC[C@@H](NC(=O)c1ccc(/C=C2\NC(=O)NC2=O)cc1)C(=O)O`: the Activity in test [1] turned out to be 97%.
Same read-out and setting: with `O=C(O)CC[C@@H](NC(=O)c1ccc(/C=C2\SC(=S)N(CC(=O)O)C2=O)cc1)C(=O)O` the figure was 96%.
On to `O=C(O)CC[C@@H](NC(=O)c1cccc(/C=C2\SC(=O)NC2=O)c1)C(=O)O`, for which the Activity in test [2] was determined as 97%.
In the case of `O=C(O)CC[C@H](NC(=O)c1cccc(/C=C2\SC(=S)NC2=O)c1)C(=O)O`, in test [3], the IC50 turned out to be 172 µM.
The same measure, in the same setting: next, `O=C(O)CC[C@H](NC(=O)c1ccc(/C=C2\SC(=S)NC2=O)cc1)C(=O)O`: 10 µM.
